Like-named read-outs stand apart in the source and are kept apart here. Values belong to the compound of their own block, whether it stands above or below them.
Assays:
Assay type in all cases: cell-based
[1] = molecular target: T1, EGFR T790M/L858R kinase domain (Homo sapiens, UniProt P00533, L858R/T790M); assay: EGFR cellular target engagement assay (HEK293 cells stable for EGFR T790M, L858R); conditions: 6 hours, read-out: TE50 (the source's name)
T1 construct: EGFR (amino acids 696-1022, T790M, L858R); expressed in transfected cells; host or cells: HEK293, lentiviral transduction, puromycin selection
T1 sequence (P00533 696-1022 T790M/L858R): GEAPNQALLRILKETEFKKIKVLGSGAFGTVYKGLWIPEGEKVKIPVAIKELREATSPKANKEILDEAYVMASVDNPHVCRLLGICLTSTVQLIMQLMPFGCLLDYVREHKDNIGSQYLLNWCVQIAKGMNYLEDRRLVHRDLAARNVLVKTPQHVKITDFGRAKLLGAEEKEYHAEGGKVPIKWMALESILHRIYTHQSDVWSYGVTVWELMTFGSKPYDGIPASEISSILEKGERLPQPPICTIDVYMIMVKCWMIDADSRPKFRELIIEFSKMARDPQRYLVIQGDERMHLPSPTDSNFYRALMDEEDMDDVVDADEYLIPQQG
Protocol: HEK293 cells were cultured in DMEM (Gibco 11995), supplemented with 10% Heat-inactivated FBS (Gibco A38400-01) and 1% Penicillin/Streptomycin (Gibco 15140-122) at 37° C. with 5% CO2 in a humidified tissue culture incubator. Cells were made stable for EGFR (amino acids 696-1022, T790M, L858R) by lentiviral transduction, followed by selection with 1 μg/ml Puromycin Dihydrochloride (Thermo A1113803). Cells were seeded at 30,000 cells/ml in 0.1 ml of complete media in Poly-D-lysine-treated 96-well plates and incubated overnight. Cells were treated with increasing concentrations of compound and let incubate at 37C and 5% CO2 for 6 hours, after which media was aspirated, washed with 1×PBS and cells were lysed in RIPA Lysis and Extraction Buffer (Thermo 89901) supplemented with 5 mM MgCl2, Protease and Phosphatase inhibitor cocktail (Thermo 1861281), and Universal Nuclease (Thermo 88700). Plates with RIPA were shaken at 4° C. at 600 rpm for 15 min. After shaking samples, they were collected and spun down at 21,000 g for 15 min at 4° C. Following centrifugation, […] of lysate was added to Laemmli Sample Buffer (Bio-Rad 1610747) plus 10% beta-mercaptoethanol, boiled for 15 minutes at 65° C. and loaded onto 4-20% Mini-PROTEAN TGX™ Precast Protein Gels (Bio-Rad). Protein was transferred to a nitrocellulose membrane (Thermo LC2000) using the iBlot 2 Dry Blotting System (Thermo). After transfer, membranes were washed in 1× TBST (Bioland Scientific LLC TBST0103) 3× for 5 min. Following the wash, blocking buffer (Rockland MB-070) was added for 1 hour at room temperature. Primary antibodies against EGFR (Cell Signaling Technology 3197) and actin (Cell Signaling Technology 3700S) were added overnight at 4° C. Membranes were then washed again 3× for 5 min in 1× TBST. Secondary antibodies (LI-COR 926-68072 and 926-68073) were added and shaken for 1 hr at room temperature. Membranes were then washed 3× for 5 min in 1×TBST and developed. Membranes were placed on an Odyssey imager (LI-COR).

CCNK [2] = molecular target: T2, CCNK (Homo sapiens, UniProt O75909+Q16531+Q9NYV4); assay: CCNK HiBiT degradation assay; conditions: HEK293 LgBiT/CCNK HiBiT cells, 6 hours
T2 construct: expressed in transfected cells; host or cells: HEK293 LgBiT cells (Promega), lentiviral transduction, puromycin selection
T2 sequence (O75909 whole entry, species assumed): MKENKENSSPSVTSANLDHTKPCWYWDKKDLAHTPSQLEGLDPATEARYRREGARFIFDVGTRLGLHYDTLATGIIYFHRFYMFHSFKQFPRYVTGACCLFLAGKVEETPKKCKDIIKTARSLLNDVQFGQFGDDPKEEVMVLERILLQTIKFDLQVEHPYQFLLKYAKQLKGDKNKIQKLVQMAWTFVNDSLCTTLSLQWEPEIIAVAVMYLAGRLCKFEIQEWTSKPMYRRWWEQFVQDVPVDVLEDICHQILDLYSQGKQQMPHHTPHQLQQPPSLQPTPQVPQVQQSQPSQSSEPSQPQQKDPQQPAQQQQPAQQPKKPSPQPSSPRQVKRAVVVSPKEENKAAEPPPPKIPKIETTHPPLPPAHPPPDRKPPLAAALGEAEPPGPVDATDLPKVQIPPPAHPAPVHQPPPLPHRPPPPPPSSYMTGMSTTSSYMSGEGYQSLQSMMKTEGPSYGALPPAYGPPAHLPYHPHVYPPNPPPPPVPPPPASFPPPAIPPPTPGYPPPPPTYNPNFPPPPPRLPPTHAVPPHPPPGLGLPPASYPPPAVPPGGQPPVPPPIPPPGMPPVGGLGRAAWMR
T2 sequence (Q9NYV4 whole entry, species assumed): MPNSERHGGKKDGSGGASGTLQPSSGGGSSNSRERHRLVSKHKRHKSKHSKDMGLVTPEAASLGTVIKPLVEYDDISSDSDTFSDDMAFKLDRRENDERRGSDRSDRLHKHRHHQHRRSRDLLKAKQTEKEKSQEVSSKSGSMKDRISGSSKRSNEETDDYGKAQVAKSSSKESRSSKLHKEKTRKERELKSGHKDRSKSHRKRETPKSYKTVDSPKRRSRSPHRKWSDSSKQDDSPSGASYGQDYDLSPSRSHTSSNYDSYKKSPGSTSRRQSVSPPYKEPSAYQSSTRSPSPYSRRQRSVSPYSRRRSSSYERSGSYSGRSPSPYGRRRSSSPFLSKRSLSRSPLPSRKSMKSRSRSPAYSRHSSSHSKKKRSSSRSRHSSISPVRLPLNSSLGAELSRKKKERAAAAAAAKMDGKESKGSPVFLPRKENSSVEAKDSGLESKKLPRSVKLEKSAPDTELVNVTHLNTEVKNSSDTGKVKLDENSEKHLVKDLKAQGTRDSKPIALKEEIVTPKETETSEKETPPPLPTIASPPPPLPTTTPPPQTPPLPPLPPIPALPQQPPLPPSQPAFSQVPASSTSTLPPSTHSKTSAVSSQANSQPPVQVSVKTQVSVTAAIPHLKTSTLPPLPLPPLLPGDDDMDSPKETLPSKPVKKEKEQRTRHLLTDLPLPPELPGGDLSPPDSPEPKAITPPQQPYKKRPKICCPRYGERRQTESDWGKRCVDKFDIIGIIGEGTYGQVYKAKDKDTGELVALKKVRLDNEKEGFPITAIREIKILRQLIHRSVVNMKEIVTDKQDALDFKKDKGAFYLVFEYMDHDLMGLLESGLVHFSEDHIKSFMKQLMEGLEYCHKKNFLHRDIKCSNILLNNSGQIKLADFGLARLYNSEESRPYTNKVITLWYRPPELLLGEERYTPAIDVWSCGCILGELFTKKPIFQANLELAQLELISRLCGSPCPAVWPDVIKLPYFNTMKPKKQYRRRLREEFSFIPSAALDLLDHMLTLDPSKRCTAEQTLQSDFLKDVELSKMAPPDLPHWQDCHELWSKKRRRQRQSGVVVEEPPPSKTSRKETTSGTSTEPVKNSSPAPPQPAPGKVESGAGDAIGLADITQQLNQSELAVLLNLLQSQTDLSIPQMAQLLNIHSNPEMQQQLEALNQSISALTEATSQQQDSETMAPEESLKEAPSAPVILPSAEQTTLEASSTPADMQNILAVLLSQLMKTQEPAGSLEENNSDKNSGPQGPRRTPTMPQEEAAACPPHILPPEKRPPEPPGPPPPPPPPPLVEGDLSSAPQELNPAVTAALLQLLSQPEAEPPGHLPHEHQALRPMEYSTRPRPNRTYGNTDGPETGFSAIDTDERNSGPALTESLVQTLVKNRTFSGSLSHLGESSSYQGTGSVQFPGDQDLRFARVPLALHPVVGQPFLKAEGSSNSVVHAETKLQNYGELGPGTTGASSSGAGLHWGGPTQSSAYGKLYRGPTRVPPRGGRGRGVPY
T2 sequence (Q16531 whole entry, species assumed): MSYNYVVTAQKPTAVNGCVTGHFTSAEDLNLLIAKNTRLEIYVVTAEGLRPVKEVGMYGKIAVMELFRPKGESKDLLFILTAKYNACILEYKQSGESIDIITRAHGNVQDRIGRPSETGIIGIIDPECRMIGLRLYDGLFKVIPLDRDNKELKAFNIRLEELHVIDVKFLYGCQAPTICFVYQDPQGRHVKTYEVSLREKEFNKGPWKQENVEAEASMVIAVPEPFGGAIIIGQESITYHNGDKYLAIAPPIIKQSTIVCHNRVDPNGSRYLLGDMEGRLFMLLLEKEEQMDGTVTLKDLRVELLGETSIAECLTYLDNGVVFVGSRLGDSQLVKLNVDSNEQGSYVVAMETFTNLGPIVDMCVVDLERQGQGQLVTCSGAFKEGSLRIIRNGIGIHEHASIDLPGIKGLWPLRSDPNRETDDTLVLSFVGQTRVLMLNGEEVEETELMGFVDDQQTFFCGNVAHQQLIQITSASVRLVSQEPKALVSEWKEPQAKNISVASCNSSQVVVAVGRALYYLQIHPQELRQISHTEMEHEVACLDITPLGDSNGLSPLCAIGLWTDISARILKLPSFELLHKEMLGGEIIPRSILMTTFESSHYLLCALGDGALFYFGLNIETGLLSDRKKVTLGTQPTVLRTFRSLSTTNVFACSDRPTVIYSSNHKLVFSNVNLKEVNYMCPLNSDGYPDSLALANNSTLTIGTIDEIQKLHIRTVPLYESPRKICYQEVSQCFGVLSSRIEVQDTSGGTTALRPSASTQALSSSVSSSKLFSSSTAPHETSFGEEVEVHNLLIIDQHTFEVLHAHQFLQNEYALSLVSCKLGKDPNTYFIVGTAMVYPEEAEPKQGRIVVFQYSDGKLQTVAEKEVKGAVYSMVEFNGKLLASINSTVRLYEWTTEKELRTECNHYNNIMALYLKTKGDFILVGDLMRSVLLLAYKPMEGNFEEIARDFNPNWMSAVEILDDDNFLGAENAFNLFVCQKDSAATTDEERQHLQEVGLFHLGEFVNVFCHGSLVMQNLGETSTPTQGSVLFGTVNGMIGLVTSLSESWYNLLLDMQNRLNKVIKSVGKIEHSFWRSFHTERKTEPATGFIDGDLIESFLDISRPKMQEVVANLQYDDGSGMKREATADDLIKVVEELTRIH
Protocol: HEK293 LgBiT cells (Promega) were cultured in DMEM (Gibco 11995), supplemented with 10% Heat-inactivated FBS (Gibco A38400-01) and 1% Penicillin/Streptomycin (Gibco 15140-122) and 200 μg/ml Hygromycin B (Gibco 10-687-010) at 37° C. with 5% CO2 in a humidified tissue culture incubator. Cells were made stable for CCNK fused to a C-terminal HiBiT peptide by lentiviral transduction, followed by selection with 1 μg/ml Puromycin Dihydrochloride (Thermo A1113803). HEK293 LgBiT/CCNK HiBiT cells were seeded at 3000 cells/well in 384-well, tissue culture-treated white plates (Perkin Elmer 6007680) in 25 μL media lacking selection for 18-24 hours. Plates were spun at 300 g for 30 seconds and stored in the incubator overnight. After 24 hours, compounds were titrated in DMSO and added to media supplemented with Endurazine Substrate (Promega N2570). A 25 ul aliquot of 2× compound/endurazine in media were then added to the 384-well microplate with seeded cells. (Endurazine was used at a final concentration of 0.5×). The plate was spun at 300 g for 30 seconds and stored in the incubator. After 6 hours the plate was read on Envision MultiMode Plate Reader 2105 (Perkin Elmer) to measure luminescence signal. Data were plotted in Prism (Graphpad) and the concentration of compound at which 50% CCNK degradation occurs (DC50) was calculated.

CCNK [3] = assay: Payload release assay (DC50 readout), CCNK degradation in the presence of recombinant target protein
Protocol: Exemplary compounds were tested for ability to cause degradation of CCNK or GSPT1 in the presence of recombinant target protein.
HEK293 LgBiT/GSPT1 HiBiT CRISPR Knock-in cells (Promega) were cultured in DMEM (Gibco 11995), supplemented with 10% Heat-inactivated FBS (Gibco A38400-01) and 1% Penicillin/Streptomycin (Gibco 15140-122) and 200 Vg/ml Hygromycin B (Gibco 10-687-010) at 37° C. with 5% CO2 in a humidified tissue culture incubator. HEK293 LgBiT/CCNK HiBiT cells (in-house, described above) were cultured in DMEM (Gibco 11995), supplemented with 10% Heat-inactivated FBS (Gibco A38400-01) and 1% Penicillin/Streptomycin (Gibco 15140-122) 200 Vg/ml Hygromycin B (Gibco 10-687-010), and 1 Vg/ml Puromycin Dihydrochloride (Thermo A1113803) at 37° C. with 5% CO2 in a humidified tissue culture incubator. Cells were seeded (1000 cells/well for HEK293 LgBiT/GSPT1 HiBiT cells or 3000 cells/well for HEK293 LgBiT/CCNK HiBiT cells) 384-well, tissue culture-treated white plates (Perkin Elmer 6007680) in 10 μL media lacking selection for 18-24 hours. Plates were spun at 300 g for 30 seconds and stored in the incubator overnight. After 24 hours, a 5 μL aliquot of recombinant target protein (final concentration of either 5 μM KRAS amino acids 1-169, C51S, C80L, C118S, G12C or 3 μM EGFR amino acids 696-1022 or 3 μM EGFR amino acids 696-1022, T790M, L858R) was added to wells, followed immediately by a 5 μL aliquot of 4× compound-containing medium supplemented with Endurazine Substrate (Promega N2570) was added in each well, at a final top concentration of 10 μM test compound and 0.5× Endurazine, with 4-fold dilutions, using DMSO alone as a negative control. Plates were then spun at 300×g for 3 minutes again and cultured at 37° C. with 5% CO2. After 6 hours the plate was read on Envision MultiMode Plate Reader 2105 (Perkin Elmer) to measure luminescence signal. Data was normalized to DMSO treated cell wells. A four-parameter non-linear regression curve fit was applied to dose-response data in Prism to determine the half maximal growth inhibitory concentration (GI50) of each compound.

[4] = 0 μM recombinant KRAS G12C, II-series compounds (CCNK readout inferred), read-out: DC50 at 0 μM KRAS G12C
[5] = 5 μM recombinant KRAS G12C, II-series compounds (CCNK readout inferred), read-out: DC50 at 5 μM KRAS G12C
[6] = 0 μM recombinant EGFR T790M L858R, II-series and V-4 (CCNK readout inferred), read-out: DC50 at 0 μM EGFR T790M L858R
[7] = 0 μM recombinant EGFR WT, II-series and V-4 (CCNK readout inferred), read-out: DC50 at 0 μM EGFR WT
[8] = 3 μM recombinant EGFR T790M L858R, II-series and V-4 (CCNK readout inferred), read-out: DC50 at 3 μM EGFR T790M L858R
[9] = 3 μM recombinant EGFR WT, II-series and V-4 (CCNK readout inferred), read-out: DC50 at 3 μM EGFR WT

SMILES: C=C(COc1c(Cl)cccc1NC(=O)NCc1ccc2c(c1)CN(C1CCC(=O)NC1=O)C2=O)C(=O)N[C@@H]1CN(c2nc(Nc3cn(C)nc3OC)c3ncn(C)c3n2)C[C@H]1F (stereo partly shown) [Compound I-69]
EC50 [1]: 0.25 to 5 µM

SMILES: C=C(COc1cc(-c2ccccn2)ccc1CNc1nc(N[C@H](CC)CO)nc2c1ncn2C(C)C)C(=O)N1CCN(c2nc(OC[C@@H]3CCCN3C)nc3c2CCN(c2cccc4cccc(Cl)c24)C3)C[C@@H]1CC#N [II-186]
DC50 (CCNK [2]): 250 to 5000 nM | DC50 (CCNK [3]; [4]): 250 to 5000 nM | DC50 (CCNK [3]; [5]): < 250 nM

SMILES: C=C(CN1CCN(c2nc(NCc3nc4cc(C)ccc4[nH]3)n3ncc(Br)c3n2)CC1)C(=O)N1CCN(c2nc(OC[C@@H]3CCCN3C)nc3c2CCN(c2cccc4cccc(Cl)c24)C3)C[C@@H]1CC#N [II-190]
DC50 (CCNK [2]): < 250 nM | DC50 (CCNK [3]; [4]): < 250 nM | DC50 (CCNK [3]; [5]): < 250 nM

SMILES: C=C(COc1cc(Cl)cc(NC(=O)NCc2ccc3c(c2)CN(C2CCC(=O)NC2=O)C3=O)c1)C(=O)Nc1cc(Nc2nccc(-c3cn(C)c4ccccc34)n2)c(OC)cc1N(C)CCN(C)C (stereo not shown) [Compound I-59]
EC50 [1]: 0.25 to 5 µM

SMILES: C=C(CN(C(=O)NCc1ccc2c(c1)CN(C1CCC(=O)NC1=O)C2=O)c1ccc(C)c(Cl)c1)C(=O)Nc1cc(Nc2ncc(-c3cn(C)c4ccccc34)cn2)c(OC)cc1N(C)CCN(C)C (stereo not shown) [Compound I-42]
EC50 [1]: 5 to 10 µM

SMILES: C=C(COC(=O)n1c(CNc2nc(N3CCNCC3)nc3c(Br)cnn23)nc2cc(C)ccc21)C(=O)N1C[C@H](COc2nc(Nc3cnn(C)c3)nc3[nH]cc(Cl)c23)[C@@H](OC)C1 [Compound V-4]
DC50 (CCNK [2]): < 250 nM | DC50 (CCNK [3]; [6]): < 250 nM | DC50 (CCNK [3]; [7]): < 250 nM | DC50 (CCNK [3]; [8]): < 250 nM | DC50 (CCNK [3]; [9]): < 250 nM | EC50 [1]: > 10 µM

SMILES: C=C(CN(C(=O)NCc1ccc2c(c1)CN(C1CCC(=O)NC1=O)C2=O)c1ccc(C)c(Cl)c1)C(=O)N1C[C@@H](COc2nc(Nc3cnn(C)c3)nc3[nH]cc(Cl)c23)[C@H](OC)C1 (stereo partly shown) [Compound I-71]
EC50 [1]: > 10 µM

SMILES: C=C(COc1cc(Cl)cc(NC(=O)NCc2ccc3c(c2)CN(C2CCC(=O)NC2=O)C3=O)c1)C(=O)N1C[C@H](COc2nc(Nc3cnn(C)c3)nc3[nH]cc(Cl)c23)[C@@H](OC)C1 (stereo partly shown) [Compound I-54]
EC50 [1]: 0.25 to 5 µM

SMILES: C=C(CN1C(=O)CCC(N2Cc3cc(CNC(=O)Nc4ccc(C)c(Cl)c4)ccc3C2=O)C1=O)C(=O)Nc1cc(Nc2ncc(-c3cn(C)c4ccccc34)cn2)c(OC)cc1N(C)CCN(C)C (stereo not shown) [Compound I-87]
EC50 [1]: < 0.25 µM

SMILES: C=C(COc1ccc(Cl)cc1NC(=O)NCc1ccc2c(c1)CN(C1CCC(=O)NC1=O)C2=O)C(=O)N[C@@H]1CN(c2nc(Nc3cn(C)nc3OC)c3ncn(C)c3n2)C[C@H]1F (stereo partly shown) [Compound I-47]
EC50 [1]: 0.25 to 5 µM

SMILES: C=C(COc1c(Cl)cccc1NC(=O)NCc1ccc2c(c1)CN(C1CCC(=O)NC1=O)C2=O)C(=O)Nc1cc(Nc2nccc(-c3cn(C)c4ccccc34)n2)c(OC)cc1N(C)CCN(C)C (stereo not shown) [Compound I-60]
EC50 [1]: < 0.25 µM

SMILES: C=C(COc1cc(Cl)cc(NC(=O)NCc2ccc3c(c2)CN(C2CCC(=O)NC2=O)C3=O)c1)C(=O)Nc1cccc(-c2cccc3cnc(Nc4ccc(N5CCN(CCO)CC5)c(F)c4F)nc23)c1 (stereo not shown) [Compound I-61]
EC50 [1]: > 10 µM

SMILES: C=C(CN(C(=O)NCc1ccc2c(c1)CN(C1CCC(=O)NC1=O)C2=O)c1ccc(C)c(Cl)c1)C(=O)Nc1cccc(Oc2nc(Nc3ccc(N4CCN(C)CC4)cc3)nc3ccsc23)c1 (stereo not shown) [Compound I-70]
EC50 [1]: > 10 µM

SMILES: C=C(COc1cc(Cl)cc(NC(=O)NCc2ccc3c(c2)CN(C2CCC(=O)NC2=O)C3=O)c1)C(=O)Nc1cccc(Oc2nc(Nc3ccc(N4CCN(C)CC4)cc3)nc3ccsc23)c1 (stereo not shown) [Compound I-55]
EC50 [1]: > 10 µM

Continued, values first:

DC50 (CCNK [2]): < 250 nM | DC50 (CCNK [3]; [6]): < 250 nM | DC50 (CCNK [3]; [7]): < 250 nM | DC50 (CCNK [3]; [9]): > 10000 nM | EC50 [1]: < 0.25 µM
SMILES: C=C(CN1CCN(c2nc(NCc3nc4cc(C)ccc4[nH]3)n3ncc(Br)c3n2)CC1)C(=O)Nc1cc(Nc2nccc(-c3cn(C)c4ccccc34)n2)c(OC)cc1N(C)CCN(C)C [II-188]

DC50 (CCNK [2]): < 250 nM | DC50 (CCNK [3]; [6]): 250 to 5000 nM | DC50 (CCNK [3]; [7]): 250 to 5000 nM | DC50 (CCNK [3]; [8]): < 250 nM | DC50 (CCNK [3]; [9]): < 250 nM | EC50 [1]: > 10 µM
SMILES: C=C(COC(=O)N1CCN(c2nc(NCc3nc4cc(C)ccc4[nH]3)n3ncc(Br)c3n2)CC1)C(=O)N1C[C@H](COc2nc(Nc3cnn(C)c3)nc3[nH]cc(Cl)c23)[C@@H](OC)C1 [II-185]

DC50 (CCNK [3]; [6]): < 250 nM | DC50 (CCNK [3]; [7]): < 250 nM | EC50 [1]: 0.25 to 5 µM
SMILES: C=C(COc1cc(-c2ccccn2)ccc1CNc1nc(N[C@H](CC)CO)nc2c1ncn2C(C)C)C(=O)N[C@@H]1CN(c2nc(Nc3cn(C)nc3OC)c3ncn(C)c3n2)C[C@H]1F [II-183]

DC50 (CCNK [3]; [6]): 250 to 5000 nM | DC50 (CCNK [3]; [7]): 5000 to 10000 nM | EC50 [1]: > 10 µM
SMILES: C=C(CN1CCN(c2nc(NCc3nc4cc(C)ccc4[nH]3)n3ncc(Br)c3n2)CC1)C(=O)Nc1cccc(-c2cccc3cnc(Nc4ccc(N5CCN(CCO)CC5)c(F)c4F)nc23)c1 [II-191]

Reference: patent US20240408093A1, “HETEROBIFUNCTIONAL COMPOUNDS AND THEIR USE IN TREATING DISEASE” (HALDA THERAPEUTICS OPCO, INC., priority 2022, published 2024)
